Assay results reported in patent EP4631940A1, “COMPOUND TARGETING PAN-KRAS PROTEIN DEGRADATION AGENT AND USE THEREOF” (Betta Pharmaceuticals Co., Ltd., priority 2022, dated 2024).
Read-outs that look alike come from different tables or passages of the source.

Legend:
AGS = test: Cell proliferation experiment (CellTiter-Glo); assay type: cell-based; details: read-out: IC50(nM) AGS
SW620 = test: Cell proliferation experiment (CellTiter-Glo); assay type: cell-based; details: read-out: IC50(nM) SW620
H358 = test: Cell proliferation experiment (CellTiter-Glo); assay type: cell-based; details: H358, KRAS mutation type G12C, 96 h incubation
KRAS G12D [1] = biological target: T1, KRAS G12D (Homo sapiens, UniProt P01116, G12D)
in vitro [2] = details: human, microsomes
in vitro [3] = details: rat, microsomes
in vitro [4] = details: mouse, microsomes
in vitro [5] = details: dog, microsomes
KRAS G12D [6] = biological target: T1, KRAS G12D; test: cell-based; details: AGS

T1 sequence (P01116 1-188 isoform P01116-2 G12D): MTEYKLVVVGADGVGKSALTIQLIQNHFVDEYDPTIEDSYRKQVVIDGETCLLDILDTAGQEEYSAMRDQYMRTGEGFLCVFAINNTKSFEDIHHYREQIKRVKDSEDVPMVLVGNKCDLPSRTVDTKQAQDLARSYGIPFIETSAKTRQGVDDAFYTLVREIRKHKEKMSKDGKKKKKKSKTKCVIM

Row | Compound | IC50 (AGS) [nM] | IC50 (SW620) [nM] | IC50 (H358) [nM] | IC50 (AGS; Homo sapiens, AGS, 96 h) [nM] | IC50 (H358; Homo sapiens, NCI-H358) [nM] | IC50 (SW620; Homo sapiens, SW-620, 96 h) [nM] | DC50 (KRAS G12D [1]) [nM] | microsomal CLint (in vitro [2]) [µL/min/mg] | microsomal CLint (in vitro [3]) [µL/min/mg] | microsomal CLint (in vitro [4]) [µL/min/mg] | microsomal CLint (in vitro [5]) [µL/min/mg] | Dmax (KRAS G12D [6]) [%]
1 | (2S,4R)-1-((2R)-2-(3-(3-(4-((1-((7-(8-ethyl-7-fluoro-3-hydroxynaphthalen-1-yl)-8-fluoro-4-((R) 3-hydroxy-3-methylpiperidin-1-yl)pyrido[4,3-d]pyrimidin-2-yl)oxy)methyl)cyclopropyl)methyl) piperazin-1-yl)pyrrolidin-1-yl)isoxazol-5-yl)-3-methylbutanoyl)-4-hydroxy-N-((S)-1-(4-(4-meth ylthiazol-5-yl)phenyl)ethyl)pyrrolidine-2-carboxamide [Compound 166] | 4.9 | 33 | 21 |  |  |  |  |  |  |  |  | 
2 | CCc1c(F)ccc2cc(O)cc(-c3ncc4c(N5CCCC(C)(O)C5)nc(OCC5(CN6CCC(COc7ccc(C(=O)N[C@H](C(=O)N8C[C@H](O)C[C@H]8C(=O)N[C@@H](C)c8ccc(-c9scnc9C)cc8)C(C)(C)C)cc7)CC6)CC5)nc4c3F)c12 (stereo partly drawn) [Compound 1, (2S,4R)-1-((2S)-2-(4-((1-((1-(((7-(8-ethyl-7-fluoro-3-hydroxynaphthalen-1-yl)-8-fluoro-4-(3-hydroxy-3-methylpiperidin-1-yl)pyrido[4,3-d]pyrimidin-2-yl)oxy)methyl)cyclopropyl)methyl)piperidin-4-yl)methoxy)benzamido)-3,3-dimethylbutanoyl)-4-hydroxy-N-((S)-1-(4-(4-methylthiazol-5-yl)phenyl)ethyl)pyrrolidine-2-carboxamide] |  |  |  | 109 | 1080 |  |  |  |  |  |  | 
3 | CCc1c(F)ccc2cc(O)cc(-c3ncc4c(N5CCC[C@@](C)(O)C5)nc(OCC5(CN6CCC7(CC6)CN(Cc6cnc(-c8cn([C@H](C(=O)N9C[C@H](O)C[C@H]9C(=O)N[C@@H](C)c9ccc(-c%10scnc%10C)cc9)C(C)C)nn8)cn6)C7)CC5)nc4c3F)c12 [Compound 189] | 2.9 | 13 | 15 |  |  |  |  |  |  |  |  | 
4 | (2S,4R)-1-((S)-2-(4-(5-(7-((7-(8-ethyl-7-fluoro-3-hydroxynaphthalen-1-yl)-8-fluoro-4-((R)-3-hy droxy-3-methylpiperidin-1-yl)pyrido[4,3-d]pyrimidin-2-yl)oxy)methyl)cyclopropyl)methyl)-2,7-azaspiro[3.5]nonan-2-yl)pyrazin-2-yl)-1H-1,2,3-triazol-1-yl)-3-methylbutanoyl)-4-hydroxy-N-(( R)-2-hydroxy-1-(4-(4-methylthiazol-5-yl)phenyl)ethyl)pyrrolidine-2-carboxamide [Compound 170] | 3.6 | 19 | 8.5 |  |  |  |  |  |  |  |  | 
5 | C#Cc1c(F)ccc2cc(O)cc(-c3ncc4c(N5CCCn6nc(C(=O)N(C)C)cc6C5)nc(OCC5(CN6CCC(COc7ccc(C(=O)N[C@H](C(=O)N8C[C@H](O)C[C@H]8C(=O)N[C@@H](C)c8ccc(-c9scnc9C)cc8)C(C)(C)C)cc7)CC6)CC5)nc4c3F)c12 [Compound 89] | 193 | 1420 | 635 |  |  |  |  |  |  |  |  | 
6 | CCc1c(F)ccc2cc(O)cc(-c3ncc4c(N5CCC[C@@](C)(O)C5)nc(OCC5(CN6CCN(c7cnc(-c8cn([C@H](C(=O)N9C[C@H](O)C[C@H]9C(=O)N[C@@H](C)c9ccc(-c%10scnc%10C)cc9)C(C)C)nn8)cn7)CC6)CC5)nc4c3F)c12 [Compound 134] |  |  |  | 10 |  | 58 | 5.9 | 28.4 | 3 | 6.4 | 5.5 | 95
7 | CCc1c(F)ccc2cc(O)cc(-c3ncc4c(N5CCC[C@@](C)(O)C5)nc(OCC5(CN6CCC(Oc7cc([C@H](C(=O)N8C[C@H](O)C[C@H]8C(=O)N[C@@H](C)c8ccc(-c9scnc9C)cc8)C(C)C)on7)CC6)CC5)nc4c3F)c12 [Compound 114, (2S,4R)-1-((R)-2-(3-((1-((1-(((7-(8-ethyl-7-fluoro-3-hydroxynaphthalen-1-yl)-8-fluoro-4-((R)-3-hydroxy-3-methylpiperidin-1-yl)pyrido[4,3-d]pyrimidin-2-yl)oxy)methyl)cyclopropyl)methyl)piperidin-4-yl)oxy)isoxazol-5-yl)-3-methylbutanoyl)-4-hydroxy-N-((S)-1-(4-(4-methylthiazol-5-yl)phenyl)ethyl)pyrrolidine-2-carboxamide] |  |  |  | 13 |  |  | 18 | 46.5 | 25.2 | 18.9 | 50.5 | 95
8 | (2S,4R)-1-((S)-2-(4-(5-((1-((1-(((7-(8-ethyl-7-fluoro-3-hydroxynaphthalen-1-yl)-8-fluoro-4-((R)-3-hydroxy-3-methylpiperidin-1-yl)pyrido[4,3-d]pyrimidin-2-yl)oxy)methyl)cyclopropyl)methyl) piperidin-4-yl)oxy)pyrazin-2-yl)-1H-1,2,3-triazol-1-yl)-3-methylbutanoyl)-4-hydroxy-N-((1R,2R )-2-hydroxy-3-methyl-1-(4-(4-methylthiazol-5-yl)phenyl)butyl)pyrrolidine-2-carboxamide [Compound 184] | 2.7 | 11 | 15 |  |  |  |  |  |  |  |  | 
9 | C=C1CN2[C@H](COc3ccc(-c4cn([C@H](C(=O)N5C[C@H](O)C[C@H]5C(=O)N[C@@H](C)c5ccc(-c6scnc6C)cc5)C(C)C)nn4)cn3)CC[C@@]2(COc2nc(N3CCC[C@@](C)(O)C3)c3cnc(-c4cc(O)cc5ccc(F)c(CC)c45)c(F)c3n2)C1 [Compound 124] |  |  |  | 15 |  | 135 | 21 | 49.7 | 9.1 | 18.6 | 88 | 95
10 | CCc1c(F)ccc2cc(O)cc(-c3ncc4c(N5CCC[C@@](C)(O)C5)nc(OCC5(CN6CCC(n7cc(-c8cn([C@H](C(=O)N9C[C@H](O)C[C@H]9C(=O)N[C@@H](C)c9ccc(-c%10scnc%10C)cc9)C(C)C)nn8)cn7)CC6)CC5)nc4c3F)c12 [Compound 138] |  |  |  | 14 |  | 102 | 13 | 11.2 | 5.7 | 13.6 | 25.5 | 95
11 | CCc1c(F)ccc2cc(O)cc(-c3ncc4c(N5CCC[C@@](C)(O)C5)nc(OCC5(CN6CCC(c7ccc(-c8cn([C@H](C(=O)N9C[C@H](O)C[C@H]9C(=O)N[C@@H](C)c9ccc(-c%10scnc%10C)cc9)C(C)(C)C)nn8)cc7)CC6)CC5)nc4c3F)c12 [Compound 119] |  |  |  | 37 |  |  |  | 6.1 | 9.1 | 10.4 | 14.9 | 
12 | CCc1c(F)ccc2cc(O)cc(-c3ncc4c(N5CCC[C@@](C)(O)C5)nc(OCC5(CN6CCN(C7CN(c8cnc(-c9cn([C@H](C(=O)N%10C[C@H](O)C[C@H]%10C(=O)N[C@@H](C)c%10ccc(-c%11scnc%11C)cc%10)C(C)C)nn9)cn8)C7)CC6)CC5)nc4c3F)c12 [Compound 183] | 3 | 11 | 12 |  |  |  |  |  |  |  |  | 
13 | CCc1c(F)ccc2cc(O)cc(-c3ncc4c(N5CCC[C@@](C)(O)C5)nc(OCC5(CN6CCN(CC7CCN(c8cc([C@H](C(=O)N9C[C@H](O)C[C@H]9C(=O)N[C@@H](C)c9ccc(-c%10scnc%10C)cc9)C(C)C)on8)CC7)CC6)CC5)nc4c3F)c12 [Compound 111] |  |  |  | 20 |  |  | 21 | 21.7 | 15.7 | 10.6 | 8.4 | 95
14 | CCc1c(F)ccc2cc(O)cc(-c3ncc4c(N5CCC[C@@](C)(O)C5)nc(OCC5(CN6CCC(F)(COc7cc([C@H](C(=O)N8C[C@H](O)C[C@H]8C(=O)N[C@@H](C)c8ccc(-c9scnc9C)cc8)C(C)C)on7)CC6)CC5)nc4c3F)c12 [Compound 100] |  |  |  | 11 |  | 38 | 9.5 | 47 | 7.9 | 3.2 | 57.5 | 95
15 | CCc1c(F)ccc2cc(O)cc(-c3ncc4c(N5CCC[C@@](C)(O)C5)nc(OCC5(CN6CCC(N7CCN(c8cc([C@H](C(=O)N9C[C@H](O)C[C@H]9C(=O)N[C@@H](C)c9ccc(-c%10scnc%10C)cc9)C(C)C)on8)CC7)CC6)CC5)nc4c3F)c12 [Compound 115] |  |  |  | 29 |  |  | 21 | 32.1 | 13.8 | 15.9 | 18.3 | 95
16 | CCc1c(F)ccc2cc(O)cc(-c3ncc4c(N5CCC[C@@](C)(O)C5)nc(OCC5(CN6CCC(c7ccc(-c8cn([C@H](C(=O)N9C[C@H](O)C[C@H]9C(=O)N[C@@H](C)c9ccc(-c%10scnc%10C)cc9)C(C)C)nn8)cn7)CC6)CC5)nc4c3F)c12 [Compound 203] |  |  |  | 11 |  | 47 | 14 |  |  |  |  | 95
17 | CCc1c(F)ccc2cc(O)cc(-c3ncc4c(N5CCC[C@@](C)(O)C5)nc(OCC5(CN6CCC7(CC6)CN(c6cc([C@H](C(=O)N8C[C@H](O)C[C@H]8C(=O)N[C@@H](C)c8ccc(-c9scnc9C)cc8)C(C)C)on6)C7)CC5)nc4c3F)c12 [Compound 105] |  |  |  | 12 |  |  | 8.9 | 9.9 | 5.9 | 13.3 | 28.5 | 95
18 | CCc1c(F)ccc2cc(O)cc(-c3ncc4c(N5CCC[C@@](C)(O)C5)nc(OCC5(CN6CCC(Oc7cnc(-c8cn([C@H](C(=O)N9C[C@H](O)C[C@H]9C(=O)N[C@@H](CO)c9ccc(-c%10scnc%10C)cc9)C(C)C)nn8)cn7)CC6)CC5)nc4c3F)c12 [Compound 178] | 2.5 | 9.4 | 5.7 |  |  |  |  |  |  |  |  | 
